Laboratory results taken from patent US10577362B2, “Substituted 2, 4-diamino-quinoline derivatives for use in the treatment of proliferative diseases” (GENOSCIENCE PHARMA, priority 2016, dated 2020).

What was measured:
[1] = system: A375 (malignant melanoma) cell line; experiment: CellTiter-Glo luminescent cell viability assay, A375; format: cell-based, human; conditions: Homo sapiens, A-375; for viability at 4 µM: A375, compound at 4 μM; for viability at 4 µM / viability at 10 µM: 72 h; for viability at 10 µM: A375, compound at 10 μM; for EC50: A375 cell line, 72 h incubation, CellTiter-Glo, read-out: EC50, growth inhibition of A375
Method in brief: (§1)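 Adherent lines plated overnight, MOLM-14 (suspension) 1 h before dosing, in medium with 10% FBS at 37 °C, 5% CO2. Compounds added at varying concentrations for 72 h; CellTiter-Glo luminescence read, EC50 as dose reducing signal to 50% of diluent-treated cells, at least duplicate points.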

[2] = system: 786-O (renal adenocarcinoma) cell line; experiment: CellTiter-Glo luminescent cell viability assay, 786-O; format: cell-based, human; conditions: Homo sapiens, 786-0; for viability at 4 µM / viability at 10 µM: 786-O, 72 h; for viability at 4 µM: compound at 4 μM; for viability at 10 µM: compound at 10 μM; for EC50: 786-O cell line, 72 h incubation, CellTiter-Glo, read-out: EC50, growth inhibition of 786-O
Method in brief: as §1

[3] = system: HCT-116 (colorectal carcinoma) cell line; experiment: CellTiter-Glo luminescent cell viability assay, HCT-116; format: cell-based, human; conditions: Homo sapiens; for viability at 4 µM: HCT-116, compound at 4 μM; for viability at 4 µM / viability at 10 µM: 72 h; for viability at 10 µM: HCT-116, compound at 10 μM; for EC50: HCT-116 cell line, 72 h incubation, CellTiter-Glo, read-out: EC50, growth inhibition of HCT-116
Method in brief: as §1

[4] = system: PANC-1 (prancreatic carcinoma) cell line; experiment: CellTiter-Glo luminescent cell viability assay, PANC-1; format: cell-based; conditions: Homo sapiens; for viability at 4 µM: PANC-1, 4 μM; for viability at 4 µM / viability at 10 µM: 72 h, % of signal of diluent-treated cultures; for viability at 10 µM: PANC-1, 10 μM; for EC50: PANC-1 cell line, 72 h incubation, CellTiter-Glo, read-out: EC50 (growth inhibition assay of PANC-1 cell line)
Method in brief: (§2)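 Luminescent signal, normalised to diluent-treated cultures, defines % viability; EC50 is the concentration lowering it to 50%. Cells had been exposed to compound for 72 h at 37 °C in medium with 10% FBS, at a constant H2O or DMSO percentage.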

[5] = system: Huh7 (hepatocellular carcinoma) cell line; experiment: CellTiter-Glo luminescent cell viability assay, Huh7; format: cell-based, human; conditions: Homo sapiens, Huh-7; for viability at 4 µM: Huh7, compound at 4 μM; for viability at 4 µM / viability at 10 µM: 72 h; for viability at 10 µM: Huh7, compound at 10 μM; for EC50: Huh7 cell line, 72 h incubation, CellTiter-Glo, read-out: EC50, growth inhibition of Huh7
Method in brief: as §2

[6] = system: MOLM-14 (acute myeloid leukemia) cell line; experiment: CellTiter-Glo luminescent cell viability assay, MOLM-14; format: cell-based, human; conditions: Homo sapiens; for viability at 4 µM: MOLM-14, compound at 4 μM; for viability at 4 µM / viability at 10 µM: 72 h; for viability at 10 µM: MOLM-14, compound at 10 μM; for EC50: MOLM-14 cell line, 72 h incubation, CellTiter-Glo, read-out: EC50, growth inhibition of MOLM-14
Method in brief: as §2

[7] = system: HepG2 (hepatocellular carcinoma) cell line; experiment: CellTiter-Glo luminescent cell viability assay, HepG2; format: cell-based, human; conditions: Homo sapiens; for viability at 4 µM / viability at 10 µM: HepG2, HepG, 72 h; for viability at 4 µM: compound at 4 μM; for viability at 10 µM: compound at 10 μM; for EC50: HepG2 cell line, 72 h incubation, CellTiter-Glo, read-out: EC50, growth inhibition of HepG2
Method in brief: as §2

SMILES	viability at 4 µM [1] [%]	viability at 10 µM [1] [%]	viability at 4 µM [2] [%]	viability at 10 µM [2] [%]	viability at 4 µM [3] [%]	viability at 10 µM [3] [%]	viability at 4 µM [4] [%]	viability at 10 µM [4] [%]	viability at 4 µM [5] [%]	viability at 10 µM [5] [%]	viability at 4 µM [6] [%]	viability at 10 µM [6] [%]	viability at 4 µM [7] [%]	viability at 10 µM [7] [%]	EC50 [1] [µM]	EC50 [2] [µM]	EC50 [3] [µM]	EC50 [4] [µM]	EC50 [5] [µM]	EC50 [6] [µM]	further results
CC(C)(C)NC1CCN(c2c(C#N)c(Nc3ccncn3)nc3ccccc23)CC1 [Compound 3282CN, 2-(pyrimidin-4-ylamino)-3-cyano-4-[4-(tert-butylamino)piperidin-1-yl]quinoline]	88.6	64.1	102	76.9	73.7	39.8	102	77.3	97.9	75.4	93.3	63.5	58.9	40.3							
CC(C)(C)NC1CCN(c2c(C#N)c(Nc3cnccn3)nc3ccccc23)CC1 [Compound 3284CN, 2-(pyrazin-2-ylamino)-3-cyano-4-[4-(tertbutylamino)piperidin-1-yl]quinoline]	88.3	64.9	89.8	61.9	83.4	27.4	96.3	69.4	95.3	79.2	102	78.3	90	68.4							
CC(C)(C)NC1CCN(c2c(C#N)c(NCc3ccccc3)nc3ccccc23)CC1 [Compound 3286CN, 2-(benzylamino)-3-cyano-4-[4-(tert-butylamino)piperidin-1-yl]quinoline]	54.5	0.2	73.5	2.4	7.6	0.1	101	54.8	75.4	0.4	90.4	60.5	85	0.4	0.5 to 5	5 to 10	5 to 10	5 to 10	5 to 10	5 to 10	EC50 [7]: 5 to 10 µM
Cc1ccc(CNc2nc3ccccc3c(N3CCC(NC(C)(C)C)CC3)c2C#N)cc1 [Compound 3288CN, 2-(4-methylbenzylamino)-3-cyano-4-[4-(tert-butylamino)piperidin-1-yl]quinoline]	0.5	0.3	1.9	0.3	0.5	0.2	63.5	0.6	0.6	0.3	62.8	0.4	0.6	0.3	0.5 to 5	0.5 to 5	0.5 to 5	5 to 10	0.5 to 5	0.5 to 5	EC50 [7]: 0.5 to 5 µM
COc1ccc(CNc2nc3ccccc3c(N3CCC(NC(C)(C)C)CC3)c2C#N)cc1 [Compound 3290CN, 2-(4-methoxybenzylamino)-3-cyano-4-[4-(tert-butylamino)piperidin-1-yl]quinoline]	57.6	0.8	74.1	2.7	43.8	0.7	95.7	38.3	80.2	1	76.4	7.4	75.5	0.7	0.5 to 5	5 to 10	0.5 to 5	5 to 10	0.5 to 5	5 to 10	EC50 [7]: 0.5 to 5 µM
CC(C)(C)NC1CCN(c2c(C#N)c(NCc3ccc(C(F)(F)F)cc3)nc3ccccc23)CC1 [Compound 3292CN, 2-[4-(trifluoromethyl)benzylamino]-3-cyano-4-[4-(tert-butylamino)piperidin-1-yl]quinoline]	0.3	0.2	0.5	0.2	0.3	0.1	75.6	25	10.2	0.2	54.7	0.3	20.5	0.2	0.5 to 5	0.5 to 5	0.5 to 5	5 to 10	0.5 to 5	5 to 10	EC50 [7]: 0.5 to 5 µM
